Test results: patent publication US20140148484A1, “PYRAZOLE COMPOUNDS FOR TREATING HAIRLOSS” (Boehringer Ingelheim International GmbH, priority 2012, published 2014)

target: T1, human CRTH2 receptor (Homo sapiens, UniProt Q9Y5Y4); test: Human CRTH2 receptor membrane radioligand binding assay (SPA, [3H]-PGD2); conditions: displacement of [3H]-PGD2 (1 nM) from CHO-K1-hCRTH2 cell membranes, 3 h room temperature
T1 construct: host or cells: CHO-K1 (CHO-K1-hCRTH2 cells); membranes prepared in house from the purchased cell line
T1 sequence (Q9Y5Y4 1-395): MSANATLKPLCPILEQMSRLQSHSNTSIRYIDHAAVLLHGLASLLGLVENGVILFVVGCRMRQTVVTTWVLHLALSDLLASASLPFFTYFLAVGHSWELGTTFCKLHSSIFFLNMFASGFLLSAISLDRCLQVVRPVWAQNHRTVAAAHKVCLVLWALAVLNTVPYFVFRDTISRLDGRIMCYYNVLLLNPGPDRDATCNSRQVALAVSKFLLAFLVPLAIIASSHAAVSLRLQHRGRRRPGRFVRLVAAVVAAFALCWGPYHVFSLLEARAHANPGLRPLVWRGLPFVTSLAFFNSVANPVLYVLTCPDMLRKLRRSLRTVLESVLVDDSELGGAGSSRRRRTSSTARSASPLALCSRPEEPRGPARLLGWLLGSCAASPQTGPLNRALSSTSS
Procedure: Preparation of Human CRTH2 Receptor Membranes and Radioligand Binding Assay
The binding of CRTH2 antagonists is determined using membranes prepared from Chinese hamster ovary cells (CHO-K1 cells) transfected with the human CRTH2 receptor (CHO-K1-hCRTH2 cells, Perkin Elmer, Cat No ES-561-C). To produce cell membranes the CHO-K1-hCRTH2 cells are cultured in suspension in CHO SFMII medium supplemented with 400 μg/ml G418. The cells are harvested by centrifugation at 300 g for 10 min at room temperature. The cell pellet is resuspended in Phosphate Buffer Saline (PBS) including a protease inhibitor mix (Complete, Roche) and adjusted to a concentration of 10E7 cells/ml. The CHO-K1-hCRTH2 cells are disrupted by nitrogen […] to obtain the membrane preparation. Cell debris is removed by centrifugation (500 g at 4° C., 30 min) and the supernatant is transferred into fresh tubes followed by a second centrifugation at 40000 g for 1 h at 4° C. to sediment the membranes. The membranes are suspended in SPA incubation buffer (50 mM Tris HCl, 10 mM MgCl2, 150 mM NaCl, 1 mM EDTA, pH 7.4) without bovine serum albumin, homogenized by passing through a single use needle (Terumo, 23G×1″), and stored in aliquots at −80° C.
The CRTH2 receptor binding assay is performed in a scintillation proximity assay (SPA) format with the radioligand [^3H]-PGD2 (Perkin Elmer, NET616000MC). CHO-K1-hCRTH2 cell membranes are again homogenized by passing through a single use needle (Terumo, 23G×1″) and diluted in SPA incubation buffer in suitable concentrations (0.5-10 μg protein/well). The SPA assay is set up in 96 well microtiter plates (Perkin Elmer, CatNo. 6005040) in SPA incubation buffer with a final volume of 200 μl per well and final concentration of 50 mM Tris-HCl, 10 mM MgCl2, 150 mM NaCl, 1 mM EDTA pH 7.4, 0.1% bovine serum albumin). The SPA assay mixture contains 60 μl of the membrane suspension, 80 μl of Wheat Germ Agglutinin coated PVT beads (GE Healthcare, RPNQ-0001, 0.3 mg/well), 40 μl of [3H]-PGD2 diluted in SPA buffer to a final concentration of 1 nM (50 000 dpm) and 20 μl of the test compound (dissolved in dimethylsulfoxid). The SPA assay mixture is incubated for 3 h at room temperature. Bound radioactivity is determined with a scintillation counter (Micro Beta Trilux, Wallac).
The binding of [^3H]-PGD2 to CHO-K1-hCRTH2 cell membranes is determined in the absence (total binding, Bo) and presence (non-specific binding, NSB) of unlabelled PGD2 (1 μM, Cayman Chemical, Cat No 12010) or a reference CRTH2 antagonist (10 μM CAY10471, Cayman Chemical, Cat No 10006735).
Determination of the affinity of a test compound is calculated by subtraction of the non-specific binding (NSB) from the total binding (Bo) or the binding in the presence of the test compound (B) at a given compound concentration. […] The Bo−NSB value is set to 0% inhibition.

SMILES	Ki [nM]
Cc1nn(Cc2ccc(NC(=O)c3ccc(C(F)(F)F)cc3)cc2Cl)c(C)c1CC(=O)O [Example 7.8]	0.8
Cc1nn(Cc2ccc(NC(=O)CCc3ccccc3)cc2Cl)c(C)c1CC(=O)O [Example 7.9]	2.5
Cc1nn(Cc2ccc(NC(=O)c3ccccc3)cc2Cl)c(C)c1CC(=O)O [Example 7.10]	5.5
Cc1nn(Cc2ccc(NC(=O)/C=C/c3ccccc3)cc2Cl)c(C)c1CC(=O)O [Example 7.11]	0.9
Cc1ccc(C(=O)Nc2ccc(Cn3nc(C)c(CC(=O)O)c3C)c(Cl)c2)c(C)c1 [Example 7.12]	4.7
Cc1nn(Cc2ccc(NC(=O)c3ccc4ccccc4c3)cc2Cl)c(C)c1CC(=O)O [Example 7.13]	1.3
Cc1cc(C(F)(F)F)ccc1C(=O)Nc1ccc(Cn2nc(C)c(CC(=O)O)c2C)c(Cl)c1 [Example 7.14]	1.6
Cc1nn(Cc2ccc(NC(=O)c3ccc(Cl)c(Cl)c3)cc2Cl)c(C)c1CC(=O)O [Example 7.15]	0.6
Cc1cc(C(F)(F)F)ccc1C(=O)Nc1ccc(Cn2nc(C)c(CC(=O)O)c2C)c(F)c1 [Example 7.16]	3.5
Cc1nn(Cc2ccc(NC(=O)c3ccc(C(F)(F)F)cc3)cc2F)c(C)c1CC(=O)O [Example 7.17]	1.1
Cc1nn(Cc2ccc(NC(=O)c3ccc(Cl)c(Cl)c3)cc2F)c(C)c1CC(=O)O [Example 7.18]	2.4
Cc1cc(Cl)ccc1C(=O)Nc1ccc(Cn2nc(C)c(CC(=O)O)c2C)c(F)c1 [Example 7.19]	5.8
Cc1nn(Cc2ccc(NC(=O)c3ccc4ccccc4c3)cc2F)c(C)c1CC(=O)O [Example 7.20]	2.2
Cc1nn(Cc2ccc(NC(=O)/C=C/c3ccccc3)cc2F)c(C)c1CC(=O)O [Example 7.21]	1.9
Cc1cc(Cl)ccc1C(=O)Nc1ccc(Cn2nc(C)c(CCC(=O)O)c2C)cc1 [Example 8.1]	1660
Cc1nn(Cc2ccc(NC(=O)c3ccc(C(F)(F)F)cc3)cc2)c(C)c1CCC(=O)O [Example 8.2]	125
Cc1nn(Cc2ccc(NC(=O)c3ccccc3)cc2)c(C)c1CCC(=O)O [Example 8.3]	3760
Cc1nn(Cc2ccc(NC(=O)c3ccc(C(C)(C)C)cc3)cc2)c(C)c1CCC(=O)O [Example 8.4]	26.1
Cc1nn(Cc2ccc(NC(=O)CCc3ccccc3)cc2)c(C)c1CCC(=O)O [Example 8.5]	427

SMILES	Ki [nM]
Cc1nn(Cc2ccc(NC(=O)c3ccc(Cl)c(Cl)c3)cc2)c(C)c1CCC(=O)O [Example 8.6]	126
Cc1cc(C(F)(F)F)ccc1C(=O)Nc1ccc(Cn2nc(C)c(CCC(=O)O)c2C)cc1 [Example 8.7]	669
Cc1nn(Cc2ccc(C(=O)Nc3cccc(F)c3)cc2)c(C)c1CC(=O)O [Example 9.1]	1480
Cc1nn(Cc2ccc(C(=O)Nc3ccc(Cl)c(F)c3)cc2)c(C)c1CC(=O)O [Example 9.2]	24.5
Cc1nn(Cc2ccc(C(=O)Nc3ccc(Cl)c(Cl)c3)cc2)c(C)c1CC(=O)O [Example 9.3]	8.7
Cc1nn(Cc2ccc(C(=O)Nc3ccc(F)c(Cl)c3)cc2)c(C)c1CC(=O)O [Example 9.4]	18.6
Cc1nn(Cc2ccc(C(=O)Nc3cccc(C(F)(F)F)c3)cc2)c(C)c1CC(=O)O [Example 9.5]	13.7
Cc1nn(Cc2ccc(C(=O)Nc3ccc(Cl)c(C(F)(F)F)c3)cc2)c(C)c1CC(=O)O [Example 9.6]	3
Cc1ccc(NC(=O)c2ccc(Cn3nc(C)c(CC(=O)O)c3C)cc2)cc1Cl [Example 9.7]	7.5
Cc1nn(Cc2ccc(C(=O)Nc3cc(Cl)cc(Cl)c3)cc2)c(C)c1CC(=O)O [Example 9.8]	31
Cc1nn(Cc2ccc(C(=O)Nc3ccc(Br)c(F)c3)cc2)c(C)c1CC(=O)O [Example 9.9]	19.4
CCc1nn(Cc2ccc(C(=O)Nc3cccc(F)c3)cc2)c(CC)c1CC(=O)O [Example 9.10]	39.1
CCc1nn(Cc2ccc(C(=O)Nc3ccc(Cl)c(F)c3)cc2)c(CC)c1CC(=O)O [Example 9.11]	7.1
CCc1nn(Cc2ccc(C(=O)Nc3ccc(F)c(Cl)c3)cc2)c(CC)c1CC(=O)O [Example 9.12]	4.8
CCc1nn(Cc2ccc(C(=O)Nc3ccc(Cl)c(C(F)(F)F)c3)cc2)c(CC)c1CC(=O)O [Example 9.13]	0.9
CCc1nn(Cc2ccc(C(=O)Nc3ccc(F)c(Br)c3)cc2)c(CC)c1CC(=O)O [Example 9.14]	3.1
CC(C)(C)c1nn(Cc2ccc(C(=O)Nc3ccc(F)c(Cl)c3)cc2)c(C(C)(C)C)c1CC(=O)O [Example 9.15]	32
CCc1nn(Cc2ccc(C(=O)Nc3ccc(Br)c(F)c3)cc2)c(CC)c1CC(=O)O [Example 9.16]	6.7
CCc1nn(Cc2ccc(C(=O)NCc3ccc4ccccc4c3)cc2)c(CC)c1CC(=O)O [Example 9.17]	34.9

SMILES	Ki [nM]
CCc1nn(Cc2ccc(C(=O)NCc3ccc(Cl)c(Cl)c3)cc2)c(CC)c1CC(=O)O [Example 9.18]	24.9
CCc1nn(Cc2ccc(C(=O)NCc3ccc(Cl)c(C(F)(F)F)c3)cc2)c(CC)c1CC(=O)O [Example 9.19]	30.5
CCc1nn(Cc2ccc(C(=O)NCc3ccc(C(F)(F)F)cc3)cc2)c(CC)c1CC(=O)O [Example 9.20]	38
CCc1nn(Cc2ccc(C(=O)N[C@H]3CC[C@H](c4ccccc4)CC3)cc2)c(CC)c1CC(=O)O [Example 9.21]	7.8
CCc1nn(Cc2ccc(C(=O)N[C@@H]3CCC[C@H](c4ccccc4)C3)cc2)c(CC)c1CC(=O)O [Example 9.22]	15.6
CCc1nn(Cc2ccc(C(=O)Nc3ccc4ccccc4n3)cc2)c(CC)c1CC(=O)O [Example 9.23]	4
CCc1nn(Cc2ccc(C(=O)NC3CCC(C)(C)CC3)cc2)c(CC)c1CC(=O)O [Example 9.24]	49.1
CCc1nn(Cc2ccc(C(=O)NC3CCC4CCCCC4C3)cc2)c(CC)c1CC(=O)O (stereo not drawn) [Example 9.25]	32.1
CCc1nn(Cc2ccc(C(=O)NC3CCC(C(C)(C)C)CC3)cc2)c(CC)c1CC(=O)O (stereo not drawn) [Example 9.26]	39.4
CCc1nn(Cc2ccc(C(=O)Nc3ccc(Cl)c(C(F)(F)F)c3)cc2F)c(CC)c1CC(=O)O [Example 9.27]	0.5
CCc1nn(Cc2ccc(C(=O)NCc3cc4ccccc4o3)cc2F)c(CC)c1CC(=O)O [Example 9.28]	10.4
Cc1nn(Cc2ccc(S(=O)(=O)Nc3ccc(F)cc3)cc2)c(C)c1CC(=O)O [Example 10.1]	2.6
COc1ccc(CCNS(=O)(=O)c2ccc(Cn3nc(C)c(CC(=O)O)c3C)cc2)cc1OC [Example 10.2]	742
CCc1nn(Cc2ccc(S(=O)(=O)Nc3ccc(C)c(Cl)c3)cc2)c(CC)c1CC(=O)O [Example 10.3]	16.1
CCc1nn(Cc2ccc(S(=O)(=O)Nc3ccc(Cl)c(Cl)c3)cc2)c(CC)c1CC(=O)O [Example 10.4]	21.6
CCc1nn(Cc2ccc(S(=O)(=O)Nc3ccc(Cl)c(F)c3)cc2)c(CC)c1CC(=O)O [Example 10.5]	27.8
Cc1nn(Cc2ccc(NC(=O)c3ccc(C(F)(F)F)cc3)cc2)c(C)c1CC(=O)NS(=O)(=O)C(C)(C)C [Example 11.1]	29.4
Cc1nn(Cc2ccc(C#Cc3ccc(C(F)(F)F)cc3)cc2)c(C)c1CC(=O)O [Example 12.1]	127
Cc1nn(Cc2ccc(/C=C/c3ccc(C(F)(F)F)cc3)cc2)c(C)c1CC(O)O [Example 12.2]	56.3
